Data on 18 molecules can be found in patent US6713475B2, “Tricyclic benzodiazepines as vasopressin receptor antagonists” (Ortho-McNeil Pharmaceutical, Inc., priority 1999, dated 2004).

Experiment [1] deals with V2 (Homo sapiens, UniProt P30518). Briefly: In vitro recombinant vasopressin receptor binding assay (V2 Bdg), displacement of 3H-arginine vasopressin. On the set-up: expressed in transfected cells; host or cells: HEK-293. To be noted: for IC50: membrane with cloned human V-2 receptor (HEK-293); for V2 Bdg % inh: 0.1 uM, printed in parentheses in place of IC50. The procedure: (§1) In vitro Recombinant Vasopressin Receptor Binding Assay
Compounds were assessed for their ability to displace ^3H-arginine vasopressin from the human V-1 or V-2 receptor in HEK-293 cells. […] Into wells of 96-well round bottom polypropylene plates were added buffer, test compound, membrane (containing cloned human V-1 or V-2 receptor), and ^3H-vasopressin. The reaction plates were allowed to sit at room temperature for one hour. The samples were filtered through Unifilter GF/C plates (presoaked in 0.3 polyethyleneimine). The plates were washed 5 times with cold physiological saline containing 0.05% Tween 20. After drying, the bottom of the filter plates were sealed and 0.025 ml of Microscint-20 was added to each filter. The top of the plate was sealed, and the plate was counted.

Experiment [2] addresses T1, human V-1 receptor (Homo sapiens, UniProt P37288).
T1 construct: expressed in transfected cells; host or cells: HEK-293
Briefly: In vitro recombinant vasopressin receptor binding assay (V1 Bdg), displacement of 3H-arginine vasopressin. The settings on record: for inhibition at 0.1 µM: read-out: V1 Bdg (% inh, 0.1 uM); for V1 Bdg % inh: 1 uM. The method, then: as §1
Compounds were assessed for their ability to displace ^3H-arginine vasopressin from the human V-1 or V-2 receptor in HEK-293 cells. Assay buffer is 50 mM Tris-Cl, 5 mM MgCl2, 0.1% BSA (pH 7.5) containing 5 ug/ml of aprotinin, leupeptin, pepstatin, 50 ug/ml bacitracin, and 1 mM Pefabloc. ^3H-vasopressin is ^3H-arginine-8-vasopressin (68.5 Ci/mmol, final concentration in assay is 0.65-0.75 nM). Into wells of 96-well round bottom polypropylene plates were added buffer, test compound, membrane (containing cloned human V-1 or V-2 receptor), and ^3H-vasopressin. The reaction plates were allowed to sit at room temperature for one hour. The samples were filtered through Unifilter GF/C plates (presoaked in 0.3 polyethyleneimine). The plates were washed 5 times with cold physiological saline containing 0.05% Tween 20. After drying, the bottom of the filter plates were sealed and 0.025 ml of Microscint-20 was added to each filter. The top of the plate was sealed, and the plate was counted. Non-specific binding was determined by the addition of 1.25 uM arginine-8-vasopressin in those wells.

V2, sequence (P30518 whole entry): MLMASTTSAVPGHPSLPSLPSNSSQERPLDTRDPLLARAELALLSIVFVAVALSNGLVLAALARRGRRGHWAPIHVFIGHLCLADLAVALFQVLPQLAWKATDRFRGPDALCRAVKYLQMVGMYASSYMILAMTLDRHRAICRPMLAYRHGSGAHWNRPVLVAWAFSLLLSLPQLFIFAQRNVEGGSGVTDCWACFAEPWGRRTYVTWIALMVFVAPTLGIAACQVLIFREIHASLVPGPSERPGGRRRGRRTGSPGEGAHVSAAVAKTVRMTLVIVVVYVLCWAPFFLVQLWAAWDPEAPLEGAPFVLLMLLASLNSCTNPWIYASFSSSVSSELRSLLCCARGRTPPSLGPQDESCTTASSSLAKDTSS
T1 sequence (P37288 whole entry): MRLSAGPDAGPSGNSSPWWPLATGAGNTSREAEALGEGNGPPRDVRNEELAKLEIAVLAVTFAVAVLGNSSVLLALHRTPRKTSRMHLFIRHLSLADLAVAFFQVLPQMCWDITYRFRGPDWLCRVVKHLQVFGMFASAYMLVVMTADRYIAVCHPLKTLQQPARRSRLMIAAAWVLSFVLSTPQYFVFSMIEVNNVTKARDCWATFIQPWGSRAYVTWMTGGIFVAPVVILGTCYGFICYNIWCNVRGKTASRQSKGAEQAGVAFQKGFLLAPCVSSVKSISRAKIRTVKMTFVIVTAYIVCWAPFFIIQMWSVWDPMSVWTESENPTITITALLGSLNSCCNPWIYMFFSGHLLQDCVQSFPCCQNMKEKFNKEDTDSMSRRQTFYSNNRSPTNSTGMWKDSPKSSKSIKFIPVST

On to `Cc1ccc(-c2ccccc2C(=O)Nc2ccc(C(=O)N3CC4COCCN4Cc4ccccc43)c(C)c2)cc1` (racemic) [Compound 28, (RS)-2-(4-Methyl-phenyl)-N-[3-methyl-4-(1,3,4,12a-tetrahydro-6H-[1,4]oxazino[4,3-a][1,4]-benzodiazepin-11(12H)-yl-carbonyl)phenyl]benzamide], for which, in experiment [1], the IC50 was determined as 0.01 µM. For the same molecule, in experiment [2], the inhibition at 0.1 µM was 14%.
Regarding `CN1CCN2Cc3ccccc3N(C(=O)c3ccc(NC(=O)c4ccccc4-c4ccccc4)cc3)CC2C1` (racemic) [Compound 69, (RS)-2-Phenyl-N-[4-(1,3,4,12a-tetrahydro-2-methyl-6H-[1,4]pyrazino[4,3-a][1,4]-benzodiazepin-11(12H)-yl-carbonyl)phenyl]benzamide], the “V2 Bdg % inh” value in experiment [1] is on record as “(38%/0.1 uM)”. In experiment [2], the “V1 Bdg % inh” value was “(22%/1 uM)”.
The corresponding values for `COc1cc(NC(=O)c2ccccc2-c2ccc(C)cc2)ccc1C(=O)N1CC2CN(C)CCN2Cc2ccccc21` (racemic) [Compound 85, (RS)-2-(4-Methyl-phenyl)-N-[3-methoxy-4-(1,3,4,12a-tetrahydro-2-methyl-6H-[1,4]pyrazino[4,3-a][1,4]-benzodiazepin-11(12H)-yl-carbonyl)phenyl]benzamide] are “(54%/0.1 uM)” and “(19%/1 uM)”.
In the case of `O=C(Nc1ccc(C(=O)N2CC3COCCN3Cc3ccccc32)cc1)c1ccccc1-c1ccccc1` (racemic) [Compound 20, (RS)-2-Phenyl-N-[4-(1,3,4,12a-tetrahydro-6H-[1,4]oxazino[4,3-a][1,4]-benzodiazepin-11(12H)-yl-carbonyl)phenyl]benzamide], the IC50 in experiment [1] was 0.008 µM. In experiment [2], the inhibition at 0.1 µM was determined as 69%.
The corresponding values for `O=C(Nc1ccc(C(=O)N2CC3COCCN3Cc3ccccc32)c(Cl)c1)c1cc(F)c(F)c(F)c1F` (racemic) [Compound 16, (RS)-2,3,4,5-Tetrafluoro-N-[3-chloro-4-(1,3,4,12a-tetrahydro-6H-[1,4]oxazino[4,3-a][1,4]-benzodiazepin-11(12H)-yl-carbonyl)phenyl]benzamide] are 0.025 µM and 20%.
With `O=C(Nc1ccc(C(=O)N2CC3COCCN3Cc3ccccc32)c(O)c1)c1ccccc1-c1ccccc1` (racemic) [Compound 23, (RS)-2-Phenyl-N-[3-hydroxy-4-(1,3,4,12a-tetrahydro-6H-[1,4]oxazino[4,3-a][1,4]-benzodiazepin-11(12H)-yl-carbonyl)phenyl]benzamide], the IC50 in experiment [1] turned out to be 0.01 µM. The inhibition at 0.1 µM in experiment [2] amounted to 33%.
The like results for `O=C(Nc1ccc(C(=O)N2CC3COCCN3Cc3ccccc32)c(Cl)c1)c1ccccc1SC(F)F` (racemic) [Compound 19, (RS)-2-(Difluoromethylthio)-N-[3-chloro-4-(1,3,4,12a-tetrahydro-6H-[1,4]oxazino[4,3-a][1,4]-benzodiazepin-11(12H)-yl-carbonyl)phenyl]benzamide] were, in that order, 0.027 µM and 24%.
On to `COc1cc(NC(=O)c2ccccc2-c2ccccc2)ccc1C(=O)N1CC2CN(C)CCN2Cc2ccccc21` (racemic) [Compound 84, (RS)-2-Phenyl-N-[3-methoxy-4-(1,3,4,12a-tetrahydro-2-methyl-6H-[1,4]pyrazino[4,3-a][1,4]-benzodiazepin-11(12H)-yl-carbonyl)phenyl]benzamide], for which the “V2 Bdg % inh” value in experiment [1] is reported as “(36%/0.1 uM)”. Besides, the “V1 Bdg % inh” value in experiment [2] is reported as “(10%/1 uM)”.
Take `Cc1csc(-c2cc(F)ccc2C(=O)Nc2ccc(C(=O)N3CC4COCCN4Cc4ccccc43)c(Cl)c2)c1` (racemic) [Compound 9, (RS)-2-(4-Methyl-2-thienyl)-4-fluoro-N-[3-chloro-4-(1,3,4,12a-tetrahydro-6H-[1,4]oxazino[4,3-a][1,4]-benzodiazepin-11(12H)-yl-carbonyl)phenyl]benzamide]: the IC50 in experiment [1] amounted to 0.011 µM. The inhibition at 0.1 µM in experiment [2] was 18%.
With `O=C(Nc1ccc(C(=O)N2CC3COCCN3Cc3ccccc32)cc1O)c1ccccc1-c1ccccc1` (racemic) [Compound 22, (RS)-2-Phenyl-N-[2-hydroxy-4-(1,3,4,12a-tetrahydro-6H-[1,4]oxazino[4,3-a][1,4]-benzodiazepin-11(12H)-yl-carbonyl)phenyl]benzamide], in experiment [1], the IC50 worked out at 0.006 µM. The inhibition at 0.1 µM in experiment [2] is 67%.
The like results for `Cc1cc(NC(=O)c2ccccc2-c2ccccc2)ccc1C(=O)N1CC2COCCN2Cc2ccccc21` (racemic) [Compound 29, (RS)-2-Phenyl-N-[3-methyl-4-(1,3,4,12a-tetrahydro-6H-[1,4]oxazino[4,3-a][1,4]-benzodiazepin-11(12H)-yl-carbonyl)phenyl]benzamide] were, in that order, 0.006 µM and 3%.
In the case of `O=C(Nc1ccc(C(=O)N2C[C@H]3COCCN3Cc3ccccc32)c(Cl)c1)c1ccc(O)cc1-c1ccccc1` [Compound 6, (S)-2-Phenyl-4-hydroxy-N-[3-chloro-4-(1,3,4,12a-tetrahydro-6H-[1,4]oxazino[4,3-a][1,4]-benzodiazepin-11(12H)-yl-carbonyl)phenyl]benzamide], the inhibition at 0.1 µM in experiment [2] amounted to 49%.
For the molecule “(RS)-2,3-Difluoro-N-[3-chloro-4-(1,3,4,12a-tetrahydro-2-methyl-6H-[1,4]pyrazino[4,3-a][1,4]-benzodiazepin-11(12H)-yl-carbonyl)phenyl]benzamide [Compound 101]”, the “V1 Bdg % inh” value in experiment [2] is listed as “(6%/1 uM)”.
On the same count and under the same terms, next, `COc1cc(C(=O)N2CC3CN(C)CCN3Cc3ccccc32)ccc1NC(=O)c1ccccc1C` (racemic) [Compound 71, (RS)-2-Methyl-N-[2-methoxy-4-(1,3,4,12a-tetrahydro-2-methyl-6H-[1,4]pyrazino[4,3-a][1,4]-benzodiazepin-11(12H)-yl-carbonyl)phenyl]benzamide]: “(12%/1 uM)”.
On to `Cc1ccccc1C(=O)Nc1ccc(C(=O)N2CC3CN(C)CCN3Cc3ccccc32)c(C(F)(F)F)c1` (racemic) [Compound 74, (RS)-2-M ethyl-N-[3-trifluoromethyl-4-(1,3,4,12a-tetrahydro-2-methyl-6H-[1,4]pyrazino[4,3-a][1,4]-benzodiazepin-11(12H)-yl-carbonyl)phenyl]benzamide], for which the “V2 Bdg % inh” value in experiment [1] is “(4%/0.1 uM)”.
For the molecule `COc1ccc(-c2ccccc2)c(C(=O)Nc2ccc(C(=O)N3CC4COCCN4Cc4ccccc43)c(Cl)c2)c1` (racemic) [Compound 116, (RS)-2-Phenyl-5-methoxy-N-[3-chloro-4-(1,3,4,12a-tetrahydro-6H-[1,4]oxazino[4,3-a][1,4]-benzodiazepin-11(12H)-yl-carbonyl)phenyl]benzamide], the IC50 in experiment [1] was determined as 0.037 µM.
On to `Cc1ccc(-c2ccccc2C(=O)Nc2ccc(C(=O)N3CC4CN(C)CCN4Cc4ccccc43)c(Cl)c2)cc1` (racemic) [Compound 66, (RS)-2-(4-Methyl-phenyl)-N-[3-chloro-4-(1,3,4,12a-tetrahydro-2-methyl-6H-[1,4]pyrazino[4,3-a][1,4]-benzodiazepin-11(12H)-yl-carbonyl)phenyl]benzamide], for which, in experiment [1], the “V2 Bdg % inh” value is listed as “(82%/0.1 uM)”.
As to `Cc1cc(NC(=O)c2ccccc2-c2ccccc2)ccc1C(=O)N1CC2CSCCN2Cc2ccccc21` (racemic) [Compound 107, (RS)-2-Phenyl-N-[3-methyl-4-(1,3,4,12a-tetrahydro-6H-[1,4]thiazino[4,3-a][1,4]-benzodiazepin-11(12H)-yl-carbonyl)phenyl]benzamide], in experiment [1], the IC50 amounted to 0.021 µM.
